One block for each compound: values may come before it.
Tests used:
[1] = system: NFAT activation in Jurkat cells with NFAT-LUC reporter (JNL); assay: Jurkat NFAT-LUC reporter assay, EGFRvIII RCAR with intracellular FKBP/FRB switch; format: cell-based
Procedure: Jurkat cells with NFAT-LUC reporter (JNL) were grown to the density of 0.5×10^6/ml in Jurkat cell growth media with puromycin at 0.5 μg/ml. For each transfection 2.5×10^6 cells were spin down at 100 g for 10 minutes. Two μg of DNA per construct were used per transfection. Amaxa Nucleofector solution V and supplement I was mixed and 100 μl was added into the tube with DNA construct. The mixture was then added to the cells and transferred to the electroporation cuvette. Electroporation was done under setting X-001 using Amaxa Nucleofector II Device. 0.5 ml of growth media was added immediately after eletroporation and the mixture were transferred into 2 ml growth media in one well of the 6-well plate. After one hour, A/Z compound was applied at the final concentration of 500 nM. The cells were incubated in the 37° C. incubator with 5% CO2 overnight for 18 hrs. Tissue culture plate was coated with 5 μg/ml of EGFRvIII-Fc or IgG1-Fc for 2 hrs, blocked with the blocking buffer (DPBS with 5% serum) for 1 hour. The transfected cells with or without A/Z compound were resuspended and added to the target plate with 100 μl per well and incubated for 18 hrs. Luciferase One Glo reagent 100 μl was added per well. The samples were incubated for 5 min at 37° C. and then luminescence is measured using a luminometer.
Specifically, JNL were grown to the density of 0.5×10^6/ml in Jurkat cell growth media with puromycin at 0.5 μg/ml. For each transfection 2.5×10^6 cells were spin down at 100 g for 10 minutes. Two μg of DNA per construct were used per transfection. Amaxa Nucleofector solution V and supplement I was mixed and 100 μl was added into the tube with DNA construct. […] The samples were incubated for 5 min at 37° C. and then luminescence is measured using a luminometer.
To determine the dose response, rapaloque (“A/C heterodimerizer” AP21967), at various concentrations, was applied to the transfected cells that were cotransfected with EGFRvIII clone 139-CD8alphaTM-FKBP (SEQ ID NO: 5, construct 66) and FRB-4-1BB-CD3zeta (SEQ ID NO: 6, construct 67) and NFAT activation was measured. […]

[2] = system: NFAT activation in Jurkat cells with NFAT-LUC reporter (JNL), PDL1-Fc target; assay: Activation assay of redirected inhibitory PD1 CAR / PD1 RCAR; format: cell-based
Procedure: Jurkat cells with NFAT-LUC reporter (JNL) were grown to the density of 0.5×10^6/ml in Jurkat cell growth media with puromycin at 0.5 μg/ml. For each transfection 3×10^6 cells were spin down at 100 g for 10 minutes. Four μg DNA per construct were used per transfection. Amaxa Nucleofector solution V and supplement I was mixed and 100 μl was added into the tube with DNA construct. The mixture was then added to the cells and transferred to the electroporation cuvette. Electroporation was done under setting X-001 using Amaxa Nucleofector II Device. 0.5 ml of growth media was added immediately after eletroporation and the mixture were transferred into 2 ml growth media in one well of the 6-well plate. After two hours, the rapalogue compound at various concentrations was added to cells. The cells were applied to tissue culture plate wells that were coated by the target. Tissue culture plate was coated with 5 μg/ml of PDL1-Fc or IgG1-Fc or any target for 2 hrs at 37° C., then blocked with the blocking buffer (DPBS with 5% serum) for 30 minutes. The transfected cells were added to the target plate with 100 μl per well and incubated further for 16 hrs. Luciferase One Glo reagent 100 μl was added per well. The samples were incubated for 5 min at 37° C. and then luminescence is measured using Envision plate reader. […]

[3] = system: NFAT activation in Jurkat cells with NFAT-LUC reporter (JNL); assay: Jurkat NFAT-LUC assay, EGFRvIII RCAR with extracellular FKBP/FRB switch; format: cell-based; settings: 250 nM, external switch
Procedure: In this example, the switch is designed by fusing a leader sequence to the 139 scFv followed by linker and the first switch domain—FKBP, a hinge region and a transmembrane region (SEQ ID NO: 31). The second construct is designed by fusing a leader sequence to the FRB switch domain, a transmembrane region and the intracellular signaling domains 4-1BB followed by CD3zeta (SEQ ID NO: 32). The extracellular switch transfections and activations were carried out essentially as described for the intacellular switches in Example 1.

[4] = system: reporter under NFAT control in JNL cells; assay: Dimerization molecule dose response, single vector construct 143775 in JNL cells, CD19 target; format: cell-based; settings: nM to sub-nM doses
Source text: The constructs and viral particles were made and tested essentially as described in Example 11. Viral particles were introduced into JNL cells and evaluated for activity essentially as described in Example 1 except that the target was CD19 (as opposed to EGFRviii).
Construct 143775 was introduced into cells and the affect of dimerization molecule concentration on activation evaluated essentially as described in Example 14.

[5] = molecular target: biotinylated FKBP in the presence of everolimus; assay: FRB direct binding assay (AlphaLISA); settings: 30 nM biotinylated FKBP and FLAG FRB protein; everolimus serial diluted from 600 nM
Procedure: FRB mutations were also ranked in an alternative assay format. […] All dilutions were made in 1× AlphaLISA Immunoassay buffer (PerkinElmer). Anti-Flag acceptor beads (PerkinElmer) were added at 10 ug/ml final concentration and incubated for one hour at room temperature. Streptavidin donor beads (PerkinElmer), were then added at a final concentration of 40 ug/ml and the plate was protected from light and incubated for 30 minutes at room temperature. The plate was then read on the PerkinElmer EnVision Multiplate reader equipped with the Alpha Module using excitation of 680 nm and a 570 nm Emission filter.

[6] = system: NFAT activation in Jurkat cells with NFAT-LUC reporter (JNL); assay: Jurkat NFAT-LUC assay, peptide tag (myc/Flag) dimerization switch; format: cell-based
Procedure: The non-regulatable CAR construct, 139scFv-BBZ, SEQ ID: 7, will be used as a control. Jurkat cells with NFAT-LUC reporter (JNL) were grown to the density of 0.5×10^6/ml in Jurkat cell growth media with puromycin at 0.5 μg/ml. For each transfection 2.5×10^6 cells were spun down at 100 g for 10 minutes. Two μg of DNA per construct was used per transfection. Amaxa Nucleofector solution V and supplement I were mixed and 100 μl was added into the tube with DNA construct. The mixture was then added to the cells and transferred to the electroporation cuvette. Electroporation was done under setting X-001 using Amaxa Nucleofector II Device. 0.5 ml of growth media was added immediately after eletroporation and the mixture were transferred into 2 ml growth media in one well of the 6-well plate. The cells were incubated in the 37° C. incubator with 5% CO2 overnight. Rabbit polyclonal antibody against myc tag was added to the cells which were transfected with RCAR construct with myc tag as the extracellular domain. The concentration of the polyclonal antibody was at 100 nM. One and half hour later, 100 nM of anti rabbit antibody was added in order to enhance cluster formation. The cell mixture was incubated at 37° C. for 18 hrs. Luciferase One Glo reagent 100 μl was added per well. The samples were incubated for 5 min at 37° C. and then luminescence was measured using a luminometer.
Similarly, a construct with Flag peptide tag as the extracellular domain was used to transfect reporter cells. Rabbit polyclonal antibody against Flag peptide tag was used at 100 nM; and to facilitate further clustering, an antibody against the rabbit polyclonal antibody was used at 100 nM. In addition, a construct with scFv 139 as the extracellular domain was used to transfect reporter cells, and EGFRvIII-Fc at 100 nM was used, and one and half hour later anti-Fc antibody was used.

biotinylated FKBP in the presence of everolimus, sequence (P62942 2-108 limits assumed): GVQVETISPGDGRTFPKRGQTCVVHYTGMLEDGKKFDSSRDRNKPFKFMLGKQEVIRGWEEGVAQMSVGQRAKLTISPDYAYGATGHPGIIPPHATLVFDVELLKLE

Compound: CO[C@H]1[C@@H](O)[C@H](C)C[C@H](C)/C=C/C=C/C=C(\C)[C@@H](c2c[nH]c3c(C)cccc23)C[C@@H]2CC[C@@H](C)[C@@](O)(O2)C(=O)C(=O)N2CCCC[C@H]2C(=O)O[C@H]([C@H](C)CC2CC[C@@H](O)[C@H](OC)C2)C[C@H](O)[C@H](C)/C=C(\C)[C@H]1O (some centres unmarked) [AP21967]
fold of induction of NFAT mediated by the target ([1]; 0.8 nM rapalogue, constructs 66 and 67): 2-3 fold
fold activation of NFAT ([1]; 500 nM to as low as 20 nM, constructs 66 and 67, FIG. 12B): remained relatively constant
target regulated activation ([1]; 500 nM, EGFRvIII-Fc target, FIG. 12A): significant target regulated activation
induction of signaling by PDL-1 target ([2]; 500 nM AP21967, PD1 RCAR (PD1-ECD-TM-FRB and FKBP-41BB-CD3 zeta)): significant induction of signaling
dose response, activation of NFAT signaling ([2]; varying concentrations, PD1 RCAR, FIG. 18): potent even at sub nM concentration
target regulated activation [3]: significant target regulated activation

Compound: CO[C@H]1C[C@@H]2CC[C@@H](C)[C@@](O)(O2)C(=O)C(=O)N2CCCC[C@H]2C(=O)O[C@H]([C@H](C)C[C@@H]2CC[C@@H](O)[C@H](OC)C2)CC(=O)[C@H](C)/C=C(\C)[C@@H](O)[C@@H](OC)C(=O)[C@H](C)C[C@H](C)/C=C/C=C/C=C/1C [rapamycin]
activation [4]: effective at a broad range of concentrations

EC50 [5]: 2.46 nM
Compound: E2032I: FRB point mutant; His-FRB SEQ ID NO: 207, His-FLAG-FRB SEQ ID NO: 213

EC50 [5]: 2.15 nM
Compound: E2032L: FRB point mutant; His-FRB SEQ ID NO: 208, His-FLAG-FRB SEQ ID NO: 214

Compound: RCAR with Flag tag: flag peptide tag fused to linker, 4-1BB and CD3zeta, SEQ ID NO: 20
activation ([6]; rabbit polyclonal anti-Flag antibody and anti-rabbit antibody, 100 nM each): only showed activation when both crosslinking reagents were added

Compound: RCAR with c-myc peptide tag: c-myc peptide tag fused to linker, 4-1BB and CD3zeta, SEQ ID NO: 21
activation after addition of anti rabbit antibody ([6]; anti-myc antibody 100 nM plus anti rabbit antibody 100 nM): further enhanced
NFAT activity ([6]; rabbit polyclonal anti-myc antibody 100 nM, compared to other antibodies): higher NFAT activity

EC50 [5]: 1.44 nM
Compound: T2098L: FRB point mutant; His-FRB SEQ ID NO: 209, His-FLAG-FRB SEQ ID NO: 215

EC50 [5]: 3.9 nM
Compound: Wild type FRB: wild-type FRB; His-FRB SEQ ID NO: 206 (competition), His-FLAG-FRB SEQ ID NO: 212 (direct binding)
